Here are results for two compounds from patent publication US20070190029A1, “Listeria-induced immunorecruitment and activation, and methods of use thereof” (Cerus Corporation, priority 2005, published 2007).

Experiment [1] relates to CT26 tumor cells. Kind of experiment: Long-term adaptive immunity: subcutaneous CT26 re-challenge, Elispot, tumor volume (FIGS. 15, 16). In kind it is in vivo, mice.
Source text: Mice were initially inoculated (t=0 days) with CT26 tumor cells by way of the hemispleen model, and then treated with:
(1) No treatment with any therapeutic agent (“naive mice”);
(2) Listeria ΔactAΔinlB (3 cycles of Listeria ΔactAΔinlB beginning at t=3 days after inoculation with the CT26 tumor cells. Administration of Listeria was once weekly for three weeks. The Listeria ΔactAΔinlB had not been engineered to express any tumor antigen;
(3) GM-CSF vaccine with Listeria ΔactAΔinlB (1 injection of Listeria ΔactAΔinlB at t=6 days). Administration of the GM-CSF vaccine was started three days after injecting the tumor cells in the hemispleen, that is, on days 3, 6, and 10; or
At t=100 days (shortly before the re-challenge) and at t=107 days (post re-challenge), surviving mice in each group were assessed for long-term immunity (Elispot assays) to the immunodominant antigen of the CT26 cells (AH1 antigen). The first Elispot assay (pre re-challenge) served as a baseline assay for use in assessing adaptive immune response. The second Elispot assay (107 days; post re-challenge) was used to assess adaptive immune response. At t=102 days, all mice were inoculated with CT26 tumor cells by way of a subcutaneous re-challenge. […]
Tumor volume was assessed in the days following the CT26 tumor cell re-challenge (FIG. 16). […] The dimensions of these tumors were measured topically.
In experiment [2] the test system is CT26 tumor cells. Kind of experiment: Survival of mice with CT26 hepatic tumors (hemispleen injection model) after attenuated Listeria, with or without CTX. It is filed as in vivo, BALB/c mice. The conditions noted are these: FIG. 1D.
Procedure: Hemispleen injections were as follows. BALB/c mice were anaesthetized and the spleen exposed. The spleen was divided into two hemispleens, leaving the vascular pedicles intact. Using a 27 gauge needle, about 0.1 million viable CT26 cells in 0.4 ml HBSS buffer were injected into the spleen, thus allowing cells to flow to the liver. The vascular pedicle draining the cancer-contaminated hemispleen was ligated with a clip, and the CT26-contaminated hemispleen was excised, leaving a functional hemispleen free of tumor cells.
Hepatic tumors were induced in mice as follows. CT26 tumor cells were administered to all mice on day zero (t=0 days) to initiate hepatic tumor formation.
The following concerns the number of doses of Listeria given to the mice. “1×” means that the indicated Listeria strains were administered only at t=3 days post tumor implant (only one dose). “3×” means that the indicated Listeria strains were administered at t=3 days, 6 days, and 9 days. “5×” means that the indicated Listeria strains were administered at t=3 days, 6 days, 9 days, 12 days, and 15 days. The number of administered Listeria ΔactA cells was about 1×10^7 colony forming units (CFU) while the number of Listeria ΔactAΔinlB given was about 2×10^7 CFU (FIG. 1A). […]
The test system of another experiment is serum cytokines. The experiment can be described thus: Cytokine concentrations in mouse serum after administering Listeria, poly(I:C), or CpG (Table 7). In kind it is in vivo. The protocol:
Cytokine levels were measured in serum, where the serum was from blood harvested from mice at various times after administering Listeria or a toll-like receptor (TLR) agonist. The treatment groups were (1) Salt water (HBSS) treatment only (0.2 ml); (2) L. monocytogenes ΔactAΔinlB (1×10^7 bacteria); (3) L. monocytogenes Δhly (deleted in the gene encoding listeriolysin) (3×10^8 bacteria); (4) L. monocytogenes killed but metabolically active (KBMA) (3×10^8 bacteria) (see, e.g. Brockstedt, et al. (2005) Nat. Medicine 11:853-860); (5) heat killed L. monocytogenes ΔactAΔinlB (3×10^8 bacteria); (6) poly(I:C) (0.1 mg); or (7) CpG (0.1 mg). Peripheral blood was withdrawn at various times, and assessed for cytokine concentration (Mouse Cytokine/Chemokine LINCOplex® Kit Catalog # MCYTO-70K; Linco, St. Charles, Mo.; or BD® Cytometric Bead Array, San Jose, Calif.). CpG was CpG ODN 1826, purchased through Invivogen. Cytokine levels were measured on samples withdrawn at 2, 4, 8, 12, and 24 hours after administration of bacteria or TLR agonist.
The cytokines measured included granulocyte-colony stimulating factor (G-CSF); interferon-gamma (IFN-gamma); interleukin-1alpha (IL-1alpha); interleukin-6 (IL-6); interleukin-10 (IL-10); interleukin-12p70 (IL-12p70); interleukin-13 (IL-13); IP-10; KC (mouse ortholog of IL-8); MCP-1; MIP-1α; and TNF.

In the case of `O=P1(N(CCCl)CCCl)NCCCO1` (stereo not drawn) [CTX, cyclophosphamide], the “Elispot response to AH1 after CT26 re-challenge” value in the experiment on CT26 tumor cells [1] (FIG. 15, t=107 days) is “moderate”. In addition, the “mice tumor free following the re-challenge” value in the experiment on CT26 tumor cells [1] (subcutaneous re-challenge with 2×10^5 CT26 cells at t=102 days) is listed as “about 50%”. Besides, the “survival (figure legend)” value in the experiment on CT26 tumor cells [2] (CTX at t=4 days, Listeria from day 5, 6 or 7) is reported as “some increase in survival”. The survival result in the experiment with CT26 tumor cells [2] (CTX only, 50 mg/kg i.p. day 4, t=50 days) is listed as “about 60%”.

Regarding Poly (I:C), the “IFN-gamma concentration in mouse serum” value with serum cytokines (4-8 h (plateau)) is on record as “(25-30 pg/ml)”; in the experiment on serum cytokines (2 h), “to 15 pg/ml”. The “G-CSF concentration in mouse serum” value with serum cytokines (8-12 h (peak)) was “(6,000 pg/ml),”; in the experiment on serum cytokines (2 h) it was “to 1200 pg/ml”. Moreover, the “IL-1alpha concentration in mouse serum” value with serum cytokines (8-12 h (plateau)) was “(170-300 pg/ml)”. Besides, the results for the “IL-6 concentration in mouse serum” value in the experiment with serum cytokines (2 h), in the experiment with serum cytokines (4 h) and in the experiment on serum cytokines (12 h) were “(7500 pg/ml)”, “(5000 pg/ml” and “near basal”, respectively. In addition, the “IL-12p70 concentration in mouse serum” value with serum cytokines (2 h) was 300 at 2 h pg/ml. Further, the “IP-10 concentration in mouse serum” value in the experiment on serum cytokines (2 h) was “to 1400 pg/ml”; with serum cytokines (4 h (peak)) it was 4 h (2100 pg/ml),; in the experiment with serum cytokines (24 h), “drop (800 pg/ml”. The figures for the “KC concentration in mouse serum” value in the experiment with serum cytokines (2 h) and with serum cytokines (4 h-24 h) were “to 900 pg/ml” and “near basal”, respectively. Besides, the “MCP-1 concentration in mouse serum” value in the experiment with serum cytokines (2 h) is on record as “to 29,000 pg/ml”; in the experiment on serum cytokines (8 h), “(10,000 pg/ml”; in the experiment on serum cytokines (12 h and 24 h), “(1000 pg/ml)”. For the same compound, the “MIP-1a concentration in mouse serum” value with serum cytokines (2 h) is recorded as “to 1800 pg/ml”. Moreover, the “TNF concentration in mouse serum” value in the experiment with serum cytokines (2 h) is “to 1500 pg/ml”. The “IL-13 concentration in mouse serum” value with serum cytokines (2 h-24 h) is listed as “Basal”. Besides, the “IL-10 concentration in mouse serum” value is 8 h. Basal with serum cytokines (4 h, 12 h, 24 h); “of 14-80 pg/ml” with serum cytokines (sporadic spikes found at 2 h and at 8 h). The “IL-13 concentration in mouse serum, sporadic spikes in some mice” value in the experiment on serum cytokines (4 h, 12 h, 24 h) was “about 200 pg/ml)”.
